Our source for the RP-LC retention time values is the METLIN SMRT retention time set (Domingo-Almenara et al. 2019).

The data set is described as follows: gradient 5% acetonitrile 3 min, to 50% in 2 min, to 85% in 15 min, held 3 min, 100 µL/min. The settings on record: column: Zorbax Extend-C18 2.1 x 50 mm; eluents: water / acetonitrile, 0.1% formic acid. The essentials:
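Data were gathered over 3 months by HPLC coupled to a quadrupole time-of-flight mass spectrometer, operated in positive and negative ionization mode. Mixtures of ~100 pure standards ran on a Zorbax Extend-C18 column (2.1 × 50 mm, 1.8 μm) at 100 μL/min, with water and acetonitrile each containing 0.1% formic acid and dead and dwell volumes of 40 μL and 900 μL. Retention time was read from adduct peaks picked by computer and checked manually.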
As for `O=C([C@@H]1C[C@H](Oc2ccccc2)CN1C(=O)c1n[nH]c(=O)c2ccccc12)N1CCCC1`, the RP-LC retention time stood at 703 s. As to `c1ccc(COCCc2noc(C3CN(Cc4ccncc4)C3)n2)cc1`, the RP-LC retention time turned out to be 605 s. Compound `CC(C)(C)NC[C@@H](O)COc1cccc2c1CCCC2=O` returned an RP-LC retention time of 689 s.

On to `COC(=O)c1sccc1S(=O)(=O)NCC1CCN(Cc2cc(C)oc2C)CC1`, for which the RP-LC retention time turned out to be 579 s. Then `O=C(NCc1ccc(F)cc1F)C1CCCN(c2cn[nH]c(=O)c2)C1` (centres undefined), with 660 s; and `Cc1cccc(N2CCN(S(=O)(=O)c3ccc(-c4nnc(C5CC5)o4)o3)CC2)c1`, with 1020 s. The compound `O=C(c1cc(F)cc(F)c1)N1CCc2nc(-c3ccccc3)ncc2C1` had an RP-LC retention time of 946 s. Then `Cc1cccc(NS(=O)(=O)c2cn(CC(C)C)c3ncccc23)c1C`, with 1070 s; and `COc1ccc(-c2noc(-c3nn(-c4ccc(C)c(C)c4)ccc3=O)n2)cc1`, with 923 s; and `CCOCCCn1c(SCc2nc(-c3ccc(F)cc3)no2)nc2ccccc2c1=O`, with 1150 s. In turn, `O=C(NCc1cccnc1)c1ccc2ccnc(N3CCN(C(=O)c4ccco4)CC3)c2c1` had an RP-LC retention time of 563 s.

In turn, `COc1ccc(-c2noc(-c3cccn(CC(=O)Nc4ccc5c(c4)OCO5)c3=O)n2)cc1OC` yielded an RP-LC retention time of 741 s. The figure for `O=C(NC1CCCCC1)c1ccc(-c2csc(C3CC3)n2)cc1` is 1050 s; for `COc1ccc(C2Cn3nnc(-c4nc(-c5ccc(OC)c(F)c5)no4)c3CO2)cc1` (centres undefined) it is 1040 s; for `O=C(NCCc1csc(-c2ccccc2)n1)C1CCN(C(=O)c2cccc(Cl)c2)CC1` it is 846 s. Compound `Cc1ccc(N2C(=O)C3N=NN(Cc4nc(-c5ccc(Br)cc5)no4)C3C2=O)cc1C` (centres undefined) had an RP-LC retention time of 1130 s. With `Cc1csc(-c2cc(S(=O)(=O)Nc3cccc(C)c3C)c(C)s2)n1`, the RP-LC retention time was 1090 s.

Turning to `CCOc1ccc(NC(=O)CN2C(=O)CC(c3cccs3)=Nc3ccccc32)cc1`, the RP-LC retention time was 951 s. The compound `O=C1CC(NC(=O)C2c3ccccc3Oc3ccccc32)CN1` (centres undefined) registered an RP-LC retention time of 638 s. Regarding `CCn1ccc2sc(C)c(C(=O)NCCOC)c2c1=O`, the RP-LC retention time came to 610 s. Then `O=C(COc1ncccn1)NC1CCCCC1`, with 624 s. `CC(C)Cn1c(-c2ccccc2)nc2ccccc21`: the RP-LC retention time stood at 675 s.

Compound `Cc1ccc(Cl)cc1NC(=O)C1CCN(S(=O)(=O)c2cc3c(cc2C)NC(=O)CO3)CC1` yielded an RP-LC retention time of 863 s.

With `CCC(=O)N(C1CCOCC1)C1CCN(S(=O)(=O)c2ccc(F)cc2F)CC1`, the RP-LC retention time amounted to 998 s. The figure for `Cc1ccc(CNC(=O)C2(C)CN(S(C)(=O)=O)CC(=O)N2c2ccc(F)cc2C)cc1` (centres undefined) is 790 s; for `CCNC(=O)CCCN1C(=O)CCn2nc(-c3cn(C)c4ccccc34)cc21` it is 695 s; for `C=CCn1c(=O)c2ccccc2n(Cc2nc(-c3ccc(OC(F)(F)F)cc3)no2)c1=O` it is 1140 s. Take `Cc1ccc(-c2nc3nc(C)cc(N4CCOCC4)n3n2)cc1`: the RP-LC retention time was 763 s. Regarding `OC(c1ccc(C(F)(F)F)cc1)c1cccnc1` (centres undefined), the RP-LC retention time turned out to be 630 s. The compound `Cc1ccc(C)c(-c2csc(Nc3ccc(S(=O)(=O)Nc4nc(C)cc(C)n4)cc3)n2)c1` gave an RP-LC retention time of 1030 s. The compound `CCNC(=O)C1CCCN(c2nc3ncn(CC(=O)Nc4cccc(F)c4)c(=O)c3s2)C1` (centres undefined) yielded an RP-LC retention time of 676 s. `C=CCNC(=O)c1ccc2c(c1)N(C)C(=O)CS2` had an RP-LC retention time of 671 s. `O=C(Nc1cccc(Cl)c1)C(=O)c1c[nH]c2ccccc12` returned an RP-LC retention time of 1040 s. Take `O=C(CCC1CCN(c2cc(NC3CC3)ncn2)CC1)NCc1ccc(F)cc1`: the RP-LC retention time was 649 s.

In turn, `Cc1ccc(NC(=O)N2CCN(c3cnn4c(C)nnc4c3)CC2)cc1` returned an RP-LC retention time of 563 s.

As to `Cc1ccc(Cn2nc3ccc(S(=O)(=O)N4CCC(C)CC4)cn3c2=O)cc1`, the RP-LC retention time is 1060 s. The figure for `CN(C)c1nn(CC(=O)Nc2ccc(S(C)(=O)=O)cc2)cc1-c1ccccc1` is 786 s; for `Brc1ccc(NCc2nnc(-c3ccccc3)o2)cc1` it is 899 s; for `O=C(CCn1nnc2cc(-c3noc(COc4ccc(F)cc4)n3)ccc21)N1CCOCC1` it is 823 s.

The compound `Cc1cccc(-c2noc(CCn3nc(-c4ccccc4)ccc3=O)n2)c1` returned an RP-LC retention time of 1020 s. In turn, `Cc1ccccc1Oc1nccnc1N1CCC(C(=O)NC2CCCCCC2)CC1` came in with an RP-LC retention time of 1090 s. `CC(C)NC(=O)N1CCCC(c2cccc(C(=O)NC(C)c3ccc(F)cc3)c2)C1` (centres undefined) showed an RP-LC retention time of 907 s.

For the compound `Cc1ccn2c(NC(=O)c3cccc(C(F)(F)F)c3)c(-c3ccccc3)nc2c1`, the RP-LC retention time turned out to be 736 s.

Take `CCn1cc(-c2nc(C)c(C(=O)Nc3cc(F)ccc3F)s2)c2cccnc21`: the RP-LC retention time was 1070 s. As for `Cc1cc(OCC(=O)Nc2cccc(Cl)c2C)nc(N2CCN(c3ccccc3)CC2)n1`, the RP-LC retention time was determined as 949 s. Then `Brc1ccc(CN2CCc3nc(N4CCN(c5ccccn5)CC4)ncc3C2)cc1`, with 574 s; and `CCN(CC)c1nc2ccsc2c(=O)n1CCC(=O)NCCc1c[nH]c2ccccc12`, with 822 s; and `CCOc1cc(=O)c(C(N)=O)nn1-c1ccc(F)c(F)c1`, with 637 s. In the case of `Cc1cc(C)cc(C(=O)NC2CCN(c3cc(-c4ccccc4)[nH]n3)C2)c1` (centres undefined), the RP-LC retention time was found to be 770 s. Compound `O=C(Nc1cccc(OCc2nnc(-c3ccc(Cl)cc3)o2)c1)c1cccnc1` came in with an RP-LC retention time of 811 s. Then `CCCNC(=O)C1CC(=O)N(c2ccc3c(c2)CCN3C(C)=O)C1` (centres undefined), with 621 s.

The compound `COc1ccc2c(c1)CC(NC(=O)Nc1ccc(Br)cc1)CO2` (centres undefined) displayed an RP-LC retention time of 888 s. `CCn1ccc(C(=O)N2CCC(c3nc4cccnc4n3CCOC)C2)n1` (centres undefined) showed an RP-LC retention time of 606 s. The figure for `Cc1ccccc1-c1noc(Cn2c(=O)n(Cc3cccc(Cl)c3)c(=O)c3sccc32)n1` is 819 s; for `COc1ccc(-c2cc(C(F)F)nn2-c2ccc(S(N)(=O)=O)cc2)cc1F` it is 997 s; for `COc1cccc(OCC2c3ccsc3CCN2C(=O)CN(CC2CCCO2)C(=O)C(C)C)c1` (centres undefined) it is 906 s. The figure for `Cc1ccccc1NC(=O)C1CCN(S(=O)(=O)c2cc(C(=O)N3CCCC3)cs2)CC1` is 760 s; for `Cc1ccc(C)c(NC(=O)C2CCN(C(=O)c3ncn4c3COC(c3ccc(F)cc3)C4)CC2)c1` (centres undefined) it is 809 s; for `CC(C)Cc1nn(-c2ccccc2)cc1CN1CC(=O)NCC12CCCC2` it is 720 s. For `O=C(NCCN1CCc2ccccc2C1)c1cccc(N2CCNC(c3ccccc3)C2)n1` (centres undefined), the RP-LC retention time amounted to 576 s. `CCc1nc(-c2ccc(-c3noc(-c4ccco4)n3)cc2)cs1` had an RP-LC retention time of 1170 s. Then `O=C(COc1ccc(NC(=O)C2CC2)cn1)NCc1cc(F)cc(F)c1`, with 754 s; and `CC1=C(C(=O)Nc2cc(Cl)ccc2C(=O)NC(C)c2ccccc2)SCCO1` (centres undefined), with 1070 s. Turning to `Cn1cnc2cc(-c3noc(C4CC(=O)N(c5cccc(Cl)c5)C4)n3)ccc21` (centres undefined), the RP-LC retention time turned out to be 697 s.

As to `O=C1NCCOCCN(C(=O)Nc2ccc3c(c2)OCCO3)[C@@H]2CCCC[C@H]12`, the RP-LC retention time was 722 s. In turn, `CCOc1ccc(S(=O)(=O)N2CCCC2C(=O)Nc2nnc(CC)s2)cc1` (centres undefined) yielded an RP-LC retention time of 805 s. Turning to `Cc1noc(C)c1-c1ccc(S(=O)(=O)NCc2cccs2)cc1`, the RP-LC retention time turned out to be 869 s. In the case of `COc1cc(NC(=O)C2CC(=O)N(CCc3c[nH]c4ccc(C)cc34)C2)cc(OC)c1OC` (centres undefined), the RP-LC retention time came to 753 s. The figure for `Cc1ccccc1CC(=O)N1CCC(c2nc(C(=O)N3CCOCC3)c(C)o2)CC1` is 616 s. Then `Cc1cc(F)ccc1NC(=O)Cc1nnc(-c2cnccn2)o1`, with 659 s; and `CCN(CC)C(=O)C1CCN(S(=O)(=O)Cc2ccccc2)CC1`, with 759 s; and `O=C(NC1CCCCCC1)C1CCN(Cc2cc3ccccc3n2Cc2ccccc2Cl)CC1`, with 899 s. Turning to `COc1ccccc1CNC(=O)C1CCc2nc(N3CCOCC3)ncc2C1` (centres undefined), the RP-LC retention time was 719 s. The figure for `O=S(=O)(c1ccccc1-c1nc(-c2ccccc2)no1)N1CCN(c2ccccc2)CC1` is 1220 s.

In turn, `CC(=O)N1CCc2ccccc2C1C(=O)NCc1cccc(C(F)(F)F)c1` (centres undefined) had an RP-LC retention time of 838 s. `N#Cc1ccc(C(=O)NC2CCN(c3ccc(F)cc3)C2=O)cc1` (centres undefined) yielded an RP-LC retention time of 754 s. The figure for `CC(NC(=O)C1CCN(c2ncnc3c2oc2ccccc23)CC1)c1ccccc1` (centres undefined) is 735 s; for `CCC(CC)C(=O)Oc1coc(CSc2nc(C)cs2)cc1=O` it is 882 s; for `CCc1cc(C(=O)Nc2ccc(C#N)cc2)nc2ccnn12` it is 965 s.
